This note sets out measurements from patent US10647680B2, “Urea compound, preparation method therefor and medical use thereof” (Ancureall Pharmaceutical (Shanghai) Co., Ltd., priority 2016, dated 2020).

Where a name gives a salt, the structure may show the parent alone. Bounds are passed on as bounds.

A short description of one series: Solubility test. Format: physicochemical. The conditions noted are these: in water at 25° C.±2° C. The procedure: The fine powder of the test sample was weighed into an appropriate amount of water at 25° C.±2° C. and shaken vigorously for 30 seconds every 5 minutes so that it was fully dissolved within 30 minutes. If no visible solute particles were observed, it was considered completely dissolved. “Readily soluble” means that 1 g of the test sample could be dissolved in 1-10 ml of water; and “soluble” means that 1 g of the test sample could be dissolved in 10-30 ml of water; “slightly soluble” means that 1 g of the test sample could be dissolved in 30-100 ml of water; and “sparingly soluble” means that 1 g of the test sample could be dissolved in 100-1,000 ml of water; “nearly insoluble or insoluble” means that 1 g of the test sample could not be completely dissolved in 10,000 ml of water.

The subject of series [1] is MV4-11 (FLT3 ITD+/+ mutant type). Nature of the series: In vitro growth inhibition (GI50), MV4-11. The class given is cell-based, human. The conditions noted are these: for GI50: Homo sapiens, MV4-11, Cell lines of leukemia, read-out: GI 50 MV4-11 FLT3 (ITD +/+).
In series [2] the test system is MOLM-13 (FLT3 ITD+/− mutant type). Kind of series: In vitro growth inhibition (GI50), MOLM-13. The class given is cell-based, human. The conditions noted are these: for GI50: Homo sapiens, MOLM-13, Cell lines of leukemia, read-out: GI 50 MOLM-13 FLT3 (ITD+/−).
A further series deals with RS4; 11 (FLT3 wild type). Nature of the series: In vitro growth inhibition (GI50), RS4; 11. The class given is cell-based, human. The conditions noted are these: Homo sapiens, RS4-11; Cell lines of leukemia; read-out: GI 50 RS4: 11 FLT3 (WT).
Series [3] concerns K562 (FLT3 negative expression, positive expression of BCR-ABL fusion protein). Nature of the series: In vitro growth inhibition (GI50), K562. Format: cell-based. The conditions noted are these: Homo sapiens, Cell lines of leukemia, read-out: GI 50 K562 BCR-ABL.
Series [4] relates to RAMOS (positive expression of Brutons tyrosine protein kinase). Nature of the series: In vitro growth inhibition (GI50), RAMOS. Format: cell-based. The settings on record: Homo sapiens, Cell lines of leukemia, read-out: GI 50 Ramos BTK.
The next series deals with U937 (FLT3 wild-type). Kind of series: In vitro growth inhibition (GI50), U937. Format: cell-based. The conditions noted are these: Homo sapiens, U-937; Cell lines of leukemia; read-out: GI 50 U937 FLT 3(WT).
Series [5] concerns Kasumi-1 (c-Kit N822K mutant type). Nature of the series: In vitro growth inhibition (GI50), Kasumi-1. The class given is cell-based. The settings on record: Homo sapiens, Cell lines of leukemia, read-out: GI 50 Kasumi-1 Kit (N822K). The method, boiled down: (§1)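 Cells in RPMI1640 with 10% FBS, seeded at 5–10×10^4 cells/mL, exposed next day to compound at 5,000 nM down to 0.01 nM (2- or 10-fold dilutions, ≤1% solvent) for 3–5 days at 37 °C. CCK8 absorbance at 450 nm, growth rate relative to pre-treatment and solvent controls, GI50 from concentration–growth curve.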

Series [6] deals with KG-1 (expressing FGFR1OP2-FGFR1 fusion protein). Nature of the series: In vitro growth inhibition (GI50), KG-1. Format: cell-based. The conditions noted are these: Homo sapiens; Cell lines of leukemia; read-out: GI 50 KG-1 FGFR1OP 2-FGFR1.
In another series the test system is HL-60 (FLT3 wild type). Kind of series: In vitro growth inhibition (GI50), HL-60. Format: cell-based. The settings on record: Homo sapiens, Cell lines of leukemia, read-out: GI 50 HL60 FLT3 (WT). Summed up: as §1
Series [7] concerns OCI-AML3 (NPMc+ mutant type). Kind of series: In vitro growth inhibition (GI50), OCI-AML3. The class given is cell-based. The settings on record: Homo sapiens, OCI-AML-3; Cell lines of leukemia; read-out: GI 50 OCI- AML3 NPMc+.
[8] abbreviates: compared with the control compound AC220.

Regarding `COCCOc1ccc2c(c1)ncn2-c1ccc(NC(=O)Nc2cc(C(C)(C)C)n[nH]2)cc1` [Compound 77 p-toluenesulfonate, 1-(5-tert-butyl-2H-pyrazol-3-yl)-3-{4-[5-(2-methoxyl-ethoxyl)-benzimidazol-1-yl]-phenyl}-urea], the Solubility result in “Solubility test” (listed as 77 p-toluenesulfonate) was “slightly soluble (“slightly soluble” means that 1 g of the test sample could be dissolved in 30-100 ml of water)”.
For the compound `CN(C)CCCOc1ccc2c(c1)ncn2-c1ccc(NC(=O)Nc2cc(C(C)(C)C)n[nH]2)cc1` [Compound 81 Mesylate], the Solubility result in the series “Solubility test” was “readily soluble (“Readily soluble” means that 1 g of the test sample could be dissolved in 1-10 ml of water)”.
As to `CN(C)CCCOc1ccc2c(c1)ncn2-c1ccc(NC(=O)Nc2cc(C(C)(C)C)n[nH]2)cc1` [Compound 81], the Solubility entry in “Solubility test” (listed as 81 Free base) is given as “insoluble (“nearly insoluble or insoluble” means that 1 g of the test sample could not be completely dissolved in 10,000 ml of water)”. Moreover, the GI50 in [1] lay in the range of 0.01 to 0.1 nM; in [2], 0.01 to 0.1 nM; in the series with RS4; 11 (FLT3 wild type), 10 to 100 nM; in series [3], 100 to 1000 nM; in [4] it was 100 to 1000 nM; with U937 (FLT3 wild-type), 100 to 1000 nM. The GI50 was > 1000 nM in series [5], > 1000 nM in series [6], 100 to 1000 nM in the series on HL-60 (FLT3 wild type) and > 1000 nM in series [7]. The “inhibition activity against the growth of MV4-11 cells compared with AC220” value in series [1] (setting [8]) was “stronger inhibition activity”. The “inhibition activity against the growth of MOLM-13 cells compared with AC220” value in series [2] (setting [8]) is reported as “stronger inhibition activity”.
Consider `CC(C)(C)c1cc(NC(=O)Nc2ccc(-n3cnc4cc(OCCN5CCOCC5)ccc43)cc2)[nH]n1` [Compound 89 Mesylate, 1-(5-tert-butyl-2H-pyrazol-3-yl)-3-{4-[5-(2-morpholin-4-yl-ethoxyl)-benzimidazol-1-yl]-phenyl}-urea], for which the Solubility result in the series “Solubility test” is “readily soluble (“Readily soluble” means that 1 g of the test sample could be dissolved in 1-10 ml of water)”.
The same measure, in the same setting: in the case of `COCCOc1ccc2ncn(-c3ccc(NC(=O)Nc4cc(C(C)(C)C)n[nH]4)cc3)c2c1` [Compound 98 Mesylate, 1-(5-tert-butyl-2H-pyrazol-3-yl)-3-{4-[6-(2-methoxyl-ethoxyl)-benzimidazol-1-yl]-phenyl}-urea] it was “readily soluble (“Readily soluble” means that 1 g of the test sample could be dissolved in 1-10 ml of water)”.
With `COCCOc1ccc2ncn(-c3ccc(NC(=O)Nc4cc(C(C)(C)C)n[nH]4)cc3)c2c1` [Compound 98, 1-(5-tert-butyl-2H-pyrazol-3-yl)-3-{4-[6-(2-methoxyl-ethoxyl)-benzimidazol-1-yl]-phenyl}-urea], the Solubility result in the series “Solubility test” (listed as 98 Free base) is listed as “insoluble (“nearly insoluble or insoluble” means that 1 g of the test sample could not be completely dissolved in 10,000 ml of water)”. Besides, the GI50 is 0.1 to 1 nM in series [1]; 0.1 to 1 nM in series [2]; > 1000 nM in the series with RS4; 11 (FLT3 wild type); > 1000 nM in series [3]; > 1000 nM in series [4]; > 1000 nM with U937 (FLT3 wild-type). The GI50 (in [5]; in series [6]; with HL-60 (FLT3 wild type); in series [7]) was > 1000 nM each time.
As for `CCCCCCOc1ccc2c(c1)ncn2-c1ccc(NC(=O)n2nc(C(C)(C)C)cc2N)cc1` [Compound 117 Mesylate, 5-amino-3-tert-butyl-pyrazol-1-carboxylic acid [4-(5-hexyloxyl-benzimidazol-1-yl)-phenyl]-amide], the Solubility result in the series “Solubility test” is reported as “readily soluble (“Readily soluble” means that 1 g of the test sample could be dissolved in 1-10 ml of water)”.
Take `CCCCCCOc1ccc2c(c1)ncn2-c1ccc(NC(=O)n2nc(C(C)(C)C)cc2N)cc1` [Compound 117, 5-amino-3-tert-butyl-pyrazol-1-carboxylic acid [4-(5-hexyloxyl-benzimidazol-1-yl)-phenyl]-amide]: in “Solubility test” (listed as 117 Free base), the Solubility result is “insoluble (“nearly insoluble or insoluble” means that 1 g of the test sample could not be completely dissolved in 10,000 ml of water)”. Moreover, the GI50 in series [1] was 100 to 1000 nM; in series [2], 100 to 1000 nM; in the series with RS4; 11 (FLT3 wild type) it was > 1000 nM; in series [3], > 1000 nM; in series [4] it was > 1000 nM; in the series with U937 (FLT3 wild-type) it was > 1000 nM. In addition, the GI50 (in series [5]; in series [6]; with HL-60 (FLT3 wild type); in [7]) was > 1000 nM throughout.
As to `CC(C)(C)c1cc(N)n(C(=O)Nc2ccc(-n3cnc4cc(OCCO)ccc43)cc2)n1` [Compound 121 Mesylate, 5-amino-3-tert-butyl-pyrazol-1-carboxylic acid {4-[5-(2-hydroxy-ethoxyl)-benzimidazol-1-yl]-phenyl}-amide], in “Solubility test”, the Solubility result is on record as “readily soluble (“Readily soluble” means that 1 g of the test sample could be dissolved in 1-10 ml of water)”.
On to `CC(C)(C)c1cc(N)n(C(=O)Nc2ccc(-n3cnc4cc(OCCO)ccc43)cc2)n1` [Compound 121, 5-amino-3-tert-butyl-pyrazol-1-carboxylic acid {4-[5-(2-hydroxy-ethoxyl)-benzimidazol-1-yl]-phenyl}-amide], for which the Solubility result in the series “Solubility test” (listed as 121 Free base) is “insoluble (“nearly insoluble or insoluble” means that 1 g of the test sample could not be completely dissolved in 10,000 ml of water)”. The GI50 was 100 to 1000 nM in series [1]; 100 to 1000 nM in series [2]; > 1000 nM with RS4; 11 (FLT3 wild type); > 1000 nM in [3]; > 1000 nM in series [4]; > 1000 nM with U937 (FLT3 wild-type). Besides, the GI50 (in series [5]; in series [6]; in the series with HL-60 (FLT3 wild type); in series [7]) was > 1000 nM throughout.
Take `COc1cc2ncn(-c3ccc(NC(=O)n4nc(C(C)(C)C)cc4N)cc3)c2cc1OC` [Compound 129 Mesylate, 5-amino-3-tert-butyl-pyrazol-1-carboxylic acid [4-(5,6-dimethoxyl-benzimidazol-1-yl)-phenyl]-amide]: the Solubility entry in the series “Solubility test” is “readily soluble (“Readily soluble” means that 1 g of the test sample could be dissolved in 1-10 ml of water)”.
Regarding `COc1cc2ncn(-c3ccc(NC(=O)n4nc(C(C)(C)C)cc4N)cc3)c2cc1OC` [Compound 129, 5-amino-3-tert-butyl-pyrazol-1-carboxylic acid [4-(5,6-dimethoxyl-benzimidazol-1-yl)-phenyl]-amide], the Solubility result in the series “Solubility test” (listed as 129 Free base) was “insoluble (“nearly insoluble or insoluble” means that 1 g of the test sample could not be completely dissolved in 10,000 ml of water)”. The GI50 was 1 to 10 nM in series [1]; 1 to 10 nM in [2]; > 1000 nM in the series on RS4; 11 (FLT3 wild type); > 1000 nM in [3]; > 1000 nM in series [4]; > 1000 nM with U937 (FLT3 wild-type). The GI50 (in [5]; in series [6]; in the series with HL-60 (FLT3 wild type); in [7]) was > 1000 nM in each case.
